Where two headings read alike, the source gives them in different places.
Key:
PLC/PRF/5 tumors = type: in vivo, mice
Description: Female athymic nude mice (Harlan Sprague Dawley, Madison, Wis.) were utilized for all experiments. Animals were housed in ventilated rack caging with food and water ad libitum. The mice were acclimated for at least 5 days prior to tumor implantation with a tumor cell suspension.
The tumor model used in these studies was PLC/PRF/5 cell line, which was obtained from the ATCC (Manassas, Va.).
PLC/PRF/5 were grown in Eagle's minimum essential medium supplemented with 10% FBS and 1% L-glutamine. Each animal was implanted SC on the right flank, using a 13G trochar and 1 mL syringe, with 5×10^6 PLC/PRF/5 cells in a 0.2 mL suspension of 50% Matrigel and 50% serum free MEM medium, without antibiotics. Bacterial cultures were performed on aliquots of the cells prepared for implantation.
Treatments were initiated on DPI 14.
(§1) Tumor size measurements were recorded twice weekly from the treatment initiation until the termination of the study.
(§2) Mean, standard deviation and standard error of the mean were determined for tumor volume for all animal groups at all assessments. Student's t test was performed on tumor volumes at each measurement day, including at the end of the study, to determine whether there were any statistically significant differences between combination treatment groups and single monotherapy treatment groups.

MRI-H-254 tumors = type: in vivo, mice
Description: Female athymic nude mice (Harlan Sprague Dawley, Madison, Wis.) were utilized for all experiments. Animals were housed in ventilated rack caging with food and water ad libitum. The mice were acclimated for at least 5 days prior to tumor implantation with tumor fragments.
Treatments were initiated on DPI 20.
as §1, §2

[1] = day 14, PM00104 0.90, sorafenib 60 mg/kg/day
[2] = day 18, PM00104 0.90, sorafenib 60 mg/kg/day
[3] = day 22, PM00104 0.90, sorafenib 60 mg/kg/day
[4] = day 25, PM00104 0.90, sorafenib 60 mg/kg/day
[5] = day 28, PM00104 0.90, sorafenib 60 mg/kg/day
[6] = day 32, PM00104 0.90, sorafenib 60 mg/kg/day
[7] = day 35, PM00104 0.90, sorafenib 60 mg/kg/day
[8] = day 39, PM00104 0.90, sorafenib 60 mg/kg/day
[9] = day 42, PM00104 0.90, sorafenib 60 mg/kg/day
[10] = PM00104 0.90 IV, docetaxel 16 IP, oxaliplatin 8 IP mg/kg/day (G2, G3, G5, G7, G9), DPI 20, 27, 34

COc1c(C)cc2c(c1O)[C@@H]1[C@@H]3Cc4c(OC(C)=O)c(C)c5c(c4[C@H](CNC(=O)/C=C/c4cccc(C(F)(F)F)c4)N3[C@@H](O)[C@H](C2)N1C)OCO5 [PM00104]
% T/C (PLC/PRF/5 tumors; day 14, PM00104 0.45, sorafenib 60 mg/kg/day): 106.5%
% Inhibition (PLC/PRF/5 tumors; [1]): −0.8%
% T/C (PLC/PRF/5 tumors; [1]): 100.8%
% T/C (PLC/PRF/5 tumors; day 18, PM00104 0.45, sorafenib 60 mg/kg/day): 71.1%
% Inhibition (PLC/PRF/5 tumors; [2]): 21.2%
% T/C (PLC/PRF/5 tumors; [2]): 78.8%
% T/C (PLC/PRF/5 tumors; day 22, PM00104 0.45, sorafenib 60 mg/kg/day): 73.5%
% Inhibition (PLC/PRF/5 tumors; [3]): 33.3%
% T/C (PLC/PRF/5 tumors; [3]): 66.7%
% T/C (PLC/PRF/5 tumors; day 25, PM00104 0.45, sorafenib 60 mg/kg/day): 80.4%
% Inhibition (PLC/PRF/5 tumors; [4]): 29.0%
% T/C (PLC/PRF/5 tumors; [4]): 71.0%
% T/C (PLC/PRF/5 tumors; day 28, PM00104 0.45, sorafenib 60 mg/kg/day): 67.3%
% Inhibition (PLC/PRF/5 tumors; [5]): 47.1%
% T/C (PLC/PRF/5 tumors; [5]): 52.9%
% T/C (PLC/PRF/5 tumors; day 32, PM00104 0.45, sorafenib 60 mg/kg/day): 79.7%
% Inhibition (PLC/PRF/5 tumors; [6]): 54.4%
% T/C (PLC/PRF/5 tumors; [6]): 45.6%
% T/C (PLC/PRF/5 tumors; day 35, PM00104 0.45, sorafenib 60 mg/kg/day): 71.7%
% Inhibition (PLC/PRF/5 tumors; [7]): 45.1%
% T/C (PLC/PRF/5 tumors; [7]): 54.9%
% T/C (PLC/PRF/5 tumors; day 39, PM00104 0.45, sorafenib 60 mg/kg/day): 89.2%
% Inhibition (PLC/PRF/5 tumors; [8]): 22.9%
% T/C (PLC/PRF/5 tumors; [8]): 77.1%
% T/C (PLC/PRF/5 tumors; day 42, PM00104 0.45, sorafenib 60 mg/kg/day): 85.7%
% Inhibition (PLC/PRF/5 tumors; [9]): 29.9%
% T/C (PLC/PRF/5 tumors; [9]): 70.1%
% T/C on day 20 (MRI-H-254 tumors; [10]): 100.2%
% T/C on day 23 (MRI-H-254 tumors; [10]): 109.3%
% T/C on day 27 (MRI-H-254 tumors; [10]): 71.6%
% T/C on day 30 (MRI-H-254 tumors; [10]): 65.4%
% T/C on day 33 (MRI-H-254 tumors; [10]): 54.2%
% T/C on day 36 (MRI-H-254 tumors; [10]): 50.0%
% T/C on day 40 (MRI-H-254 tumors; [10]): 36.1%
% T/C on day 48 (MRI-H-254 tumors; [10]): 26.9%
% Inhibition (MRI-H-254 tumors; day 20, PM00104 0.9 and docetaxel 8 mg/kg/day): −0.2%
% Inhibition (MRI-H-254 tumors; day 20, PM00104 0.9 and docetaxel 16 mg/kg/day): −0.2%
% Inhibition (MRI-H-254 tumors; day 20, PM00104 0.9 and oxaliplatin 4 mg/kg/day): −0.2%
% Inhibition (MRI-H-254 tumors; day 20, PM00104 0.9 and oxaliplatin 8 mg/kg/day): −0.2%
% Inhibition (MRI-H-254 tumors; day 23, PM00104 0.9 and docetaxel 8 mg/kg/day): −9.3%
% Inhibition (MRI-H-254 tumors; day 23, PM00104 0.9 and docetaxel 16 mg/kg/day): −9.3%
% Inhibition (MRI-H-254 tumors; day 23, PM00104 0.9 and oxaliplatin 4 mg/kg/day): −9.3%
% Inhibition (MRI-H-254 tumors; day 23, PM00104 0.9 and oxaliplatin 8 mg/kg/day): −9.3%
% Inhibition (MRI-H-254 tumors; day 27, PM00104 0.9 and docetaxel 8 mg/kg/day): 28.4%
% Inhibition (MRI-H-254 tumors; day 27, PM00104 0.9 and docetaxel 16 mg/kg/day): 28.4%
% Inhibition (MRI-H-254 tumors; day 27, PM00104 0.9 and oxaliplatin 4 mg/kg/day): 28.4%
% Inhibition (MRI-H-254 tumors; day 27, PM00104 0.9 and oxaliplatin 8 mg/kg/day): 28.4%
% Inhibition (MRI-H-254 tumors; day 30, PM00104 0.9 and docetaxel 8 mg/kg/day): 34.6%
% Inhibition (MRI-H-254 tumors; day 30, PM00104 0.9 and docetaxel 16 mg/kg/day): 34.6%
% Inhibition (MRI-H-254 tumors; day 30, PM00104 0.9 and oxaliplatin 4 mg/kg/day): 34.6%
% Inhibition (MRI-H-254 tumors; day 30, PM00104 0.9 and oxaliplatin 8 mg/kg/day): 34.6%
